The experiment addresses T1, PDGF-receptor beta enzyme comprising the tyrosine kinase domain (Homo sapiens, UniProt P09619).
T1 construct: from amino acid 545 to 1106 of GenBank Access NO: AAA36427
The experiment can be described thus: Inhibition of PDGF-receptor kinase activity (cell-free, PLC1 peptide, 33P Flashplate). The experiment is classed as biochemical. To be noted: for pIC50: read-out: IC50; for inhibition at 10 µM: read-out: Percent Inhibition @ 10 uM; for IC50: read-out: IC50 (μM) on PDGF-R kinase activity. A digest of the protocol: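 The IC50 is the inhibitor level halving kinase activity relative to inhibitor-free wells, measured as 33P captured on a streptavidin-bound biotin-PLC1 peptide. The reaction ran 60 min at 30 °C in pH 8 Tris buffer with 1 mM DTT, 5 μM ATP and the 545–1106 kinase-domain enzyme.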

Setting [1] is: PDGF-R kinase activity, compound at 10 uM.

pIC50: −log10 of the molar value. Like-named read-outs stand apart in the source and are kept apart here.

T1 sequence (P09619 545-1106): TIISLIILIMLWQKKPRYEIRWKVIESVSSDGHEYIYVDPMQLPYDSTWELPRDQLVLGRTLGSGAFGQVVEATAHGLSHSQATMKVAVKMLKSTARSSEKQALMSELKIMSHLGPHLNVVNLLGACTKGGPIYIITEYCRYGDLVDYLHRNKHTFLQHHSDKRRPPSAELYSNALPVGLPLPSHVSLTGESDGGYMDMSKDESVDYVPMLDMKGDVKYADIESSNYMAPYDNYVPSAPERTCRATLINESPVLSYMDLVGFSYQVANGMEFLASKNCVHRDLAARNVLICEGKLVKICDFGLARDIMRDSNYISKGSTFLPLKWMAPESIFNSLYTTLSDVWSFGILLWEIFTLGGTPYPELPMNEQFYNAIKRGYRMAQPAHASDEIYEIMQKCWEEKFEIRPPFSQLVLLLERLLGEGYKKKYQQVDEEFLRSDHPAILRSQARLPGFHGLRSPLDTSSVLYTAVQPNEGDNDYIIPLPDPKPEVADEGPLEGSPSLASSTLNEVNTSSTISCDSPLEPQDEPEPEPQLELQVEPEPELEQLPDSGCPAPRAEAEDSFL

As to `CCC1c2cc(OC)c(OC)cc2-c2[nH]nc(Nc3cccc(Br)c3)c21` (single isomer, unassigned) [Compound 482, (3-Bromo-phenyl)-(4-ethyl-6,7-dimethoxy-1,4-dihydro-indeno[1,2-c]pyrazol-3-yl)-amine], the “Percent Inhibition @ 10 uM” value (PDGF-R kinase activity, compound at 10 uM, 10 µM) was determined as 100%. Also, the pIC50 (PDGF-R kinase activity) was 7.41. Consider `CCOC(=O)c1cccc(Nc2[nH]nc3c2Cc2cc(OC)c(OC)cc2-3)c1` [Compound 210, 3-(6,7-Dimethoxy-2,4-dihydro-indeno[1,2-c]pyrazol-3-ylamino)-benzoic acid ethyl ester], for which, under setting [1], the inhibition at 10 µM was found to be 90%. Moreover, the pIC50 (PDGF-R kinase activity) was 7.17.

Take `Fc1cccc(Nc2[nH]nc3c2Cc2cc(Cl)ccc2-3)c1` [Compound 191, (6-Chloro-2,4-dihydro-indeno[1,2-c]pyrazol-3-yl)-(3-fluoro-phenyl)-amine]: the inhibition at 10 µM under setting [1] was found to be 88%. Moreover, the pIC50 (PDGF-R kinase activity) was 7.16. In the case of `CCOc1cc2c(cc1OCC)C(C)c1c-2n[nH]c1Nc1cccnc1` (stereo not shown) [Compound 345, (6,7-Diethoxy-4-methyl-2,4-dihydro-indeno[1,2-c]pyrazol-3-yl)-pyridin-3-yl-amine], under setting [1], the inhibition at 10 µM was 88%. In addition, the pIC50 (PDGF-R kinase activity) is 7.05. For `COc1cc2c(cc1OC)C(c1ccccc1)c1c-2n[nH]c1Nc1cccc(F)c1` (stereo not shown) [Compound 302, (6,7-Dimethoxy-4-phenyl-2,4-dihydro-indeno[1,2-c]pyrazol-3-yl)-(3-fluoro-phenyl)-amine], the inhibition at 10 µM under setting [1] is 47%. Turning to `COc1cc2c(cc1OC)-c1c(c(Nc3cccc(F)c3)nn1CC(C)=O)C2` [Compound 484, 1-[3-(3-Fluoro-phenylamino)-6,7-dimethoxy-4H-indeno[1,2-c]pyrazol-1-yl]-propan-2-one], under setting [1], the inhibition at 10 µM came to 87%. Where the note is “PDGF-R kinase activity”, the pIC50 was 6.66. The matching figures for `COc1cc2c(cc1OC)-c1n[nH]c(NCc3ccccn3)c1C2` [Compound 563, (6,7-Dimethoxy-2,4-dihydro-indeno[1,2-c]pyrazol-3-yl)-pyridin-2-ylmethyl-amine]: 89% and 5.84.

`COc1cc2c(cc1OC)-c1c(c(Nc3cccc(F)c3)nn1C(=O)NCCNC(=O)c1ccccc1)C2` [Compound 532, 3-(3-Fluoro-phenylamino)-6,7-dimethoxy-4H-indeno[1,2-c]pyrazole-1-carboxylic acid (2-benzoylamino-ethyl)-amide]: the inhibition at 10 µM under setting [1] was found to be 42%.

As to `COc1cccc(Nc2[nH]nc3c2Cc2cc(OCCCN4CCN(C)CC4)c(OC)cc2-3)c1` [Compound 215, {7-Methoxy-6-[3-(4-methyl-piperazin-1-yl)-propoxy]-2,4-dihydro-indeno[1,2-c]pyrazol-3-yl}-(3-methoxy-phenyl)-amine], under setting [1], the inhibition at 10 µM worked out at 99%. Besides, under “PDGF-R kinase activity”, the pIC50 was 8.24. The matching figures for `COc1cc2c(cc1OCc1ccccc1)-c1n[nH]c(Nc3cccc(F)c3)c1C2` [Compound 549, (7-Benzyloxy-6-methoxy-2,4-dihydro-indeno[1,2-c]pyrazol-3-yl)-(3-fluoro-phenyl)-amine]: 106% and 7.04. For the molecule `COc1ccc(C(=O)n2nc(Nc3cccc(F)c3)c3c2-c2cc(OC)c(OC)cc2C3)cc1` [Compound 458, [3-(3-Fluoro-phenylamino)-6,7-dimethoxy-4H-indeno[1,2-c]pyrazol-1-yl]-(4-methoxy-phenyl)-methanone], the inhibition at 10 µM under setting [1] stood at 70.5%. Further, the pIC50 (PDGF-R kinase activity) is 5.16. The like results for `COc1cc2c(cc1OCC(O)CO)Cc1c-2n[nH]c1NCc1ccccc1Cl` (stereo not shown) [Compound 451, 3-[3-(2-Chloro-benzylamino)-7-methoxy-2,4-dihydro-indeno[1,2-c]pyrazol-6-yloxy]-propane-1,2-diol] were, in that order, 99.5% and 8.70. The matching figures for `COC(=O)n1nc(Nc2cccc(F)c2)c2c1-c1cc(OC)c(OC)cc1C2` [Compound 439, 3-(3-Fluoro-phenylamino)-6,7-dimethoxy-4H-indeno[1,2-c]pyrazole-1-carboxylic acid methyl ester]: 69.5% and 6.21.

For the molecule `COc1cc2c(cc1OC)-c1nn(C(=O)CC(=O)N3CCCC3)c(Nc3cccc(F)c3)c1C2` [Compound 535, 1-[3-(3-Fluoro-phenylamino)-6,7-dimethoxy-4H-indeno[1,2-c]pyrazol-2-yl]-3-pyrrolidin-1-yl-propane-1,3-dione], the inhibition at 10 µM under setting [1] stood at 105%. Also, the pIC50 (PDGF-R kinase activity) is 7.49. With `COc1cc2c(cc1OC)-c1n[nH]c(Nc3ncccc3Br)c1C2` [Compound 582, (3-Bromo-pyridin-2-yl)-(6,7-dimethoxy-2,4-dihydro-indeno[1,2-c]pyrazol-3-yl)-amine], the IC50 is 1.25 µM. Moreover, the inhibition at 10 µM under setting [1] amounted to 82.5%. On to `COc1cccc2c1Cc1c-2n[nH]c1Nc1cccc(C(F)(F)F)c1` [Compound 150, (5-Methoxy-2,4-dihydro-indeno[1,2-c]pyrazol-3-yl)-(3-trifluoromethyl-phenyl)-amine], for which the inhibition at 10 µM under setting [1] was determined as 85%. For the same molecule, the pIC50 (PDGF-R kinase activity) is 6.08. The matching figures for `Cc1ccc2c(c1)-c1n[nH]c(NCc3cc(Cl)cc(Cl)c3)c1C2` [Compound 313, (3,5-Dichloro-benzyl)-(7-methyl-2,4-dihydro-indeno[1,2-c]pyrazol-3-yl)-amine]: 62.5% and 5.46. The like results for `COc1ccccc1Nc1[nH]nc2c1Cc1cc(OC)c(OC)cc1-2` [Compound 27, (6,7-Dimethoxy-2,4-dihydro-indeno[1,2-c]pyrazol-3-yl)-(2-methoxy-phenyl)-amine] were, in that order, 71% and 6.18. On to `COc1cc2c(cc1OC)C(c1ccccc1)c1c-2n[nH]c1Nc1ccccc1` (stereo not shown) [Compound 300, (6,7-Dimethoxy-4-phenyl-2,4-dihydro-indeno[1,2-c]pyrazol-3-yl)-phenyl-amine], for which the inhibition at 10 µM under setting [1] is 40%. As to `COc1cc2c(cc1OC)-c1n[nH]c(Nc3cccc(SC(F)(F)F)c3)c1C2` [Compound 211, (6,7-Dimethoxy-2,4-dihydro-indeno[1,2-c]pyrazol-3-yl)-(3-trifluoromethylsulfanyl-phenyl)-amine], the inhibition at 10 µM under setting [1] stood at 87%. For the same molecule, for the setting “PDGF-R kinase activity”, the pIC50 is 7.30.

On to `COc1cc2c(cc1OC)-c1n[nH]c(Nc3ccc(F)c([N+](=O)[O-])c3)c1C2` [Compound 276, (6,7-Dimethoxy-2,4-dihydro-indeno[1,2-c]pyrazol-3-yl)-(4-fluoro-3-nitro-phenyl)-amine], for which the inhibition at 10 µM under setting [1] was determined as 11%. The pIC50 (PDGF-R kinase activity) is 6.54. Regarding `COc1cc2c(cc1OC)-c1c(c(Nc3cccc(F)c3)nn1C(=O)c1ccc(F)cc1)C2` [Compound 492, (4-Fluoro-phenyl)-[3-(3-fluoro-phenylamino)-6,7-dimethoxy-4H-indenol[1,2-c]pyrazol-1-yl]-methanone], the inhibition at 10 µM under setting [1] is 78%. Moreover, the pIC50 (PDGF-R kinase activity) is 6.33. On to `CN(C)CCCOc1ccc2c(c1)Cc1c-2n[nH]c1Nc1ccc(OC(F)(F)F)cc1` [Compound 217, [6-(3-Dimethylamino-propoxy)-2,4-dihydro-indeno[1,2-c]pyrazol-3-yl]-(4-trifluoromethoxy-phenyl)-amine], for which the inhibition at 10 µM under setting [1] was determined as 51%. Moreover, the pIC50 (PDGF-R kinase activity) was 5.46. `CCOc1cc2c(cc1OCC)-c1n[nH]c(Nc3cccc(F)c3)c1C2` [Compound 594, (6,7-Diethoxy-2,4-dihydro-indeno[1,2-c]pyrazol-3-yl)-(3-fluoro-phenyl)-amine]: the IC50 was determined as 0.0156 µM. Besides, the inhibition at 10 µM under setting [1] came to 64%. With `Fc1ccc(F)c(Nc2[nH]nc3c2Cc2cc(Br)ccc2-3)c1` [Compound 153, (6-Bromo-2,4-dihydro-indeno[1,2-c]pyrazol-3-yl)-(2,5-difluoro-phenyl)-amine], under setting [1], the inhibition at 10 µM was determined as 79%. Also, the pIC50 (PDGF-R kinase activity) is 5.99. The like results for `CC(C)Oc1cc2c(cc1OC(C)C)C(C)c1c-2n[nH]c1Nc1cccc(F)c1` (stereo not shown) [Compound 351, (6,7-Diisopropoxy-4-methyl-2,4-dihydro-indeno[1,2-c]pyrazol-3-yl)-(3-fluoro-phenyl)-amine] were, in that order, 93% and 6.40. The matching figures for `Fc1ccccc1CNc1[nH]nc2c1Cc1c(OCCCN3CCOCC3)cccc1-2` [Compound 416, (2-Fluoro-benzyl)-[5-(3-morpholin-4-yl-propoxy)-2,4-dihydro-indeno[1,2-c]pyrazol-3-yl]-amine]: 72.5% and 5.93.

For the molecule `CN(C)c1ccc2c(c1)Cc1c-2n[nH]c1Nc1ccccc1` [Compound 92, N6,N6-Dimethyl-N3-phenyl-2,4-dihydro-indeno[1,2-c]pyrazole-3,6-diamine], the inhibition at 10 µM under setting [1] stood at 75%. For the same molecule, for the setting “PDGF-R kinase activity”, the pIC50 is 6.42. Turning to `COCCCOc1ccc2c(c1)Cc1c-2n[nH]c1Nc1cccc(OC)c1` [Compound 139, (3-Methoxy-phenyl)-[6-(3-methoxy-propoxy)-2,4-dihydro-indeno[1,2-c]pyrazol-3-yl]-amine], under setting [1], the inhibition at 10 µM was 80%. Besides, for the setting “PDGF-R kinase activity”, the pIC50 was 7.01. Turning to `COc1cc2c(cc1OC)-c1n[nH]c(NC3CCCCC3)c1C2` [Compound 67, Cyclohexyl-(6,7-dimethoxy-2,4-dihydro-indeno[1,2-c]pyrazol-3-yl)-amine], under setting [1], the inhibition at 10 µM worked out at 77%. The pIC50 (PDGF-R kinase activity) is 6.21. The like results for `COc1cc2c(cc1OC)-c1n[nH]c(Nc3ccc(Cl)cc3Cl)c1C2` [Compound 17, (2,4-Dichloro-phenyl)-(6,7-dimethoxy-2,4-dihydro-indeno[1,2-c]pyrazol-3-yl)-amine] were, in that order, 79% and 5.45. The matching figures for `COc1cc2c(cc1OC)-c1nn(C(C)=O)c(Nc3cccc(F)c3)c1C2` [Compound 406, 1-[3-(3-Fluoro-phenylamino)-6,7-dimethoxy-4H-indeno[1,2-c]pyrazol-2-yl]-ethanone]: 96% and 7.12.

The record behind these values is US7196110B2, “N-substituted tricyclic 3-aminopyrazoles as inhibitors for the treatment of cell proliferative disorders” (Janssen Phamaceutica N.V., priority 2002, dated 2007).
